{
  "source": "patent US6506339B1",
  "about": "“Method of sterilization” (Biomedical Design, Inc., priority 1997, dated 2003)",
  "format_in_all_cases": "cell-based",
  "key": {"[1]": {"test_system": "Bacillus subtilis (niger) spores", "assay": "D values of EDC without isopropyl alcohol, 40° C. (Example 4A)", "details": "no isopropyl alcohol; for incubation duration necessary to achieve 6 log reduction: calculated from D value", "method": "The following experiment was carried out to assess the effectiveness of a coupling agent, such as EDC, in the absence of isopropyl alcohol or an equivalent alkanol. Bacillus subtilis (niger) spores at levels of 1.5×10^6 were inoculated in sterile cups for approximately 10 minutes. Solutions (50 ml) of 25, 37.5 and 50 mM EDC in 10 mM TRIS, 0.85% NaCl, pH 6.5, which contain no isopropyl alcohol, were prewarmed to 40° C. and then rapidly added to the cups. The cups were incubated at 40° C. for 0.5, 1, 6, 24 and 48 hours; then, the solutions were diluted and filtered in order to collect microorganisms. Next, the filters were rinsed with a 0.1% peptone water solution to eliminate any residual EDC and then incubated on TSA plates for up to 14 days. The plates were examined every day for growth, with the colony forming units (CFUs) being counted, and resulting D values were calculated. Such D values represent the duration (in minutes) of incubation to decrease the level of spores by one log, i.e. eliminating 90% of the spores population."}, "[2]": {"test_system": "Bacillus subtilis ATCC 9372 spores", "assay": "Sterilization test with or without coupling enhancer (Example 3)", "details": "20 mM EDC, 20% isopropyl alcohol, 72 hours, about 40° C.", "method": "In the experiments described above, a coupling enhancer (Sulfo-NHS) was added to EDC during the sterilization process. The following experiment was designed to test the efficacy of EDC in the presence or absence of an enhancer. A sterilization test process was carried out employing about 5.7 to 6.6×10^5 Bacillus subtilis ATCC 9372 spores, inoculating them in sterile cups for 10 minutes. A solution of 10 mM HEPES, 0.85% NaCl, 20% isopropyl alcohol, pH 6.5 was then added to each of the cups, which solution contained 20 mM EDC and either 1 mM Sulfo-NHS or 1 mM NHS or no enhancer. Incubation was carried out for 72 hours (treatment duration) with the cups at about 40° C., and the solutions from the cups were then filtered. The filters were rinsed with a 0.1% peptone water solution to eliminate any residual EDC and/or enhancer and were then incubated on Trypticase Soy Agar (TSA) plates."}, "[3]": {"test_system": "Mycobacterium Chelonae ATCC 35752", "assay": "Sterilization test, Mycobacterium chelonae in sterile cups at room temperature (Example 1)", "details": "EDC plus Sulfo-NHS, 20% isopropyl alcohol", "method": "Porcine aortic roots are fixed by cross-linking according to the method described in U.S. Pat. No. 5,447,536. After fixation, the valves are stored in 10 mM HEPES, 0.85% NaCl, 20% isopropyl alcohol, pH 7.4, at 4° C. The sterility tests described in the following examples are in most cases conducted in the presence of bioprosthetic heart valve tissue; when such tissue is not present, the solutions are simply filtered through a 0.45 micron filter attached to a funnel (filter funnel). The filters are then rinsed with peptone water to eliminate residual chemicals on the membrane that may prevent growth of the organisms tested. Such membrane filters are then incubated on TSA plates at about 32° to 33° C., e.g. 32.5° C. When an aortic valve is inoculated with microorganisms for test purposes and then submitted to sterilization, the solution is filtered as described above. The aortic valve tissue is then washed for 20 minutes in a reciprocating shaker in the presence of peptone water containing Tween 80 in order to extract all indigenous spores or microorganisms from the tissue. This solution is filtered and then incubated as described above. […] Resistance to calcification is assessed by subdermal implantation of sterilized leaflets and aortic wall coupons in young rats, as also described in the '536 U.S. patent. […]"}},
  "data": [
    {"smiles": "CCN=C=NCCCN(C)C.Cl", "note": "[EDC, 1-ethyl-3(3-dimethylaminopropyl)carbodiimide hydrochloride]", "values": [
      {"measurement": "D value (duration of incubation to decrease the level of spores by one log)", "setting": "[1]; 25 mM EDC", "result": 203, "unit": "minutes"},
      {"measurement": "incubation duration necessary to achieve 6 log reduction", "setting": "[1]; 25 mM EDC", "result": 24, "unit": "hours"},
      {"measurement": "D value (duration of incubation to decrease the level of spores by one log)", "setting": "[1]; 37.5 mM EDC", "result": 106, "unit": "minutes"},
      {"measurement": "incubation duration necessary to achieve 6 log reduction", "setting": "[1]; 37.5 mM EDC", "result": 11, "unit": "hours"},
      {"measurement": "D value (duration of incubation to decrease the level of spores by one log)", "setting": "[1]; 50 mM EDC", "result": 86, "unit": "minutes"},
      {"measurement": "incubation duration necessary to achieve 6 log reduction", "setting": "[1]; 50 mM EDC", "result": 9, "unit": "hours"},
      {"measurement": "NUMBER OF COLONY FORMING UNITS (SURVIVORS)", "setting": "[2]; enhancer 1 mM NHS", "result": 0},
      {"measurement": "NUMBER OF COLONY FORMING UNITS (SURVIVORS)", "setting": "[2]; enhancer 1 mM sulfo-NHS", "result": 0},
      {"measurement": "NUMBER OF COLONY FORMING UNITS (SURVIVORS)", "setting": "[2]; no enhancer", "result": 0},
      {"measurement": "sterilization treatment time that kills all Mycobacterium chelonae", "setting": "[3]", "result": "≤ 12", "unit": "h"}
    ]}
  ]
}
